Source: patent publication US20100168228A1, “NOVEL CHEMOTHERAPEUTIC AGENTS AGAINST INFLAMMATION AND CANCER” (RELIANCE LIFE SCIENCES PVT. LTD., priority 2006, published 2010)

Key:
NF-κB = NF-κB activation assay (Transfactor ELISA on nuclear extracts), Jurkat; type: cell-based, human; details: pretreated 3 h
Experimental: Cell pellet was resuspended in lysis buffer (10 mM HEPES, pH 7.9, 1.5 mM MgCl2, 10 mM KCl, 1 mM PMSF, 1 mMDTT, 0.5% NP 40, 0.1 mM EGTA and 0.1 mM EDTA) and allowed to swell on ice for 15 min, followed by centrifugation at 3300×g for 20 min. The cell pellet was resuspended in a volume of lysis buffer equal to the cell pellet volume. The cell suspension was slowly drawn down into a syringe and ejected the content in a single stroke. Disrupted cells were incubated for 15 min on ice, and the disrupted cell suspension was centrifuged at 10,000×g for 20 min at 4° C. Nuclear pellet was resuspended in a volume of extraction buffer (20 mM HEPES; pH 7.9, 25% glycerol, 1.5 mM MgCl2, 420 mM NaCl, 0.1 mM EDTA, 0.1 mM EGTA, 1 mM PMSF and 1 mM DTT) and incubated on ice for 30 min. The nuclear suspension was centrifuged at 21,000×g for 15 min at 4° C. and the supernatant was collected as nuclear extract and stored at −70° C. Protein concentration was estimated using standard Bradford method.
To determine NF-κB activation, transcription profiling was done with the BD Mercury Transfactor kit obtained from BD Biosciences. This method provides rapid, high-throughput detection of specific transcription factors eg NFκB in the nuclear extract. Using an enzyme-linked immunosorbent assay (ELISA)-based format, the Transcription Factor kit detects the DNA binding by specific transcription factors.
The assay was performed by using wells coated with oligonucleotides having the consensus DNA binding sites for the specific transcription factors. 50 μg of the nuclear extract proteins were incubated in the wells precoated with their specific oligonucletides, and allowed the activated NFκB to bind to their consensus sequence. Bound transcription factor was detected by a specific Primary Antibody. A horseradish peroxidase conjugated Secondary Antibody was then used to detect the bound Primary Antibody. After addition of the substrate, the Absorbance was recorded at 655 nm. […]

U937 = assay: Cytotoxicity (MTT) in different human tumor cell lines; type: cell-based; details: 30 μM, 72 h
Experimental: FIG. 9: CAMVE induces differential cytotoxicity in different human tumor cell lines. Different human tumor cell lines were cultured either in the presence or absence of CAMVE (30 μM) for 72 h. The MTT assay was done and absorbance taken at 570 nm. The result indicated are mean O.D. of triplicate culture.
Cytotoxicity was assayed by the modified tetrazolium salt 3-(4,5-dimethylthiazol-2-yl)-2,5-diphenyltetrazolium bromide (MTT) assay as described by Plumb, J A et al. (Cancer Res. 1989 Aug. 15; 49(16):4435-4440).

bcl-2 = bcl-2 mRNA, semi-quantitative RT-PCR, Jurkat; type: cell-based, human; details: 0-500 nM, 24 h
Experimental: FIG. 18: Effects of compound 27 on p53, Bax, bcl-2 mRNA levels in Jurkat cells. Expression of human p53, bax-α, bcl-2, was assayed by semi quantitative RT-PCR analysis with GAPDH as internal control. Cells were treated for 24 h with various doses of the compound (0, 50, 100 and 500 nM), then total RNA was extracted and submitted to RT-PCR.
RNA extraction: Total RNA was isolated using the standard TRIzol method (Gibco BRL). Briefly, 3×10^6 cells were treated with different concentrations of the compounds as indicated in the legends to Figures and after harvesting the cell pellet was resuspended in 1 ml of TRIzol with repeated pipetting. The homogenized sample was incubated at RT for 5 min to permit complete dissociation of the nucleoprotein complexes. […] of chloroform was added and the tubes were shaken vigorously for 15 sec by hand and then incubated at RT for 3 mins. The samples were then centrifuged at 10,000 RPM for 15 mins at 4° C. The aqueous phase was transferred to a fresh tube and 500 μl of Isopropyl alcohol was added, followed by incubation at RT for 10 mins. […]
Semi-quantitative reverse transcriptase (RT)-PCR: Changes in gene expression were verified by semi-quantitative RT-PCR using GAPDH as an internal normalization standard. 1 μg of total RNA (quantified by spectrophotometer) was used to reverse transcribe into cDNA. […]

MCF-7 = assay: Apoptosis by PARP cleavage (FACS), MCF-7; type: cell-based, human; details: MCF-7, 100 nM, 24 h
Experimental: (§1) FIG. 19: Effect of compound 27 on the apoptosis in cells with different p53 status. Extent of apoptosis in different cells was measured by staining the cells for PARP cleavage followed by FACS analysis. Cells were treated with 100 nM of the compound for 24 h and the level of apoptosis was seen. Percentage apoptotic populations are represented as the M2 gated population.
(§2) PARP Cleavage Assay using Flow Cytometry: Extent of PARP cleavage is determined using polyclonal antibody specifically recognizing the 85 kDa fragment of cleaved PARP (NSB 699 Novus Biologicals) and can be used as a marker for detecting apoptotic cells. Treated cells were fixed with 70% chilled ethanol and permeabilized for 30 min at RT (PBS+0.5% BSA+0.02% NaN3+0.5% saponin) and stained with anti PARP-FITC (10 μl/10^6 cells) for one hour at RT. Cells were washed twice with wash buffer (PBS+1% heat inactivated FBS) and analysed using FACS.

U937 cell line = assay: Apoptosis by PARP cleavage (FACS), U937; type: cell-based, human; details: U937, 100 nM, 24 h
Experimental: as §1, §2

| Structure (SMILES) | TNF induced NF-κB activation (NF-κB; 0.1 nM TNF 30 min) | concentration of maximum inhibition of TNF induced NF-κB activation (NF-κB; 0.1 nM TNF 30 min) [µM] | LPS induced NF-κB activation (NF-κB; 100 ng/ml SA-LPS 30 min) | CAMVE mediated cell death (MTT), sensitivity among tumor cell lines (U937) | anti-apoptotic bcl-2 mRNA levels (bcl-2) | level of apoptosis (PARP cleavage) (MCF-7) | level of apoptosis (PARP cleavage) (U937 cell line) |
| --- | --- | --- | --- | --- | --- | --- | --- |
| COC(=O)c1ccc(OC(=O)/C=C/c2ccc(O)c(O)c2)c(OC)c1 [compound 1, Methyl 4-{[(2E)-3-(3,4-dihydroxyphenyl)prop-2-enoyl]oxy}-3-methoxybenzoate] | inhibited this activation in a concentration dependent manner | 15 | blocked by CAMVE | most sensitive to CAMVE treatment | – | – | – |
| COc1cc([C@@H]2Oc3c(OC)cc(/C=C/C(=O)O)cc3[C@H]2C(=O)O)ccc1O [compound 27, 5-[(E)-2-carboxyvinyl]-2β-(4-hydroxy-3-methoxyphenyl)-7-methoxy-2,3-dihydro-1-benzofuran-3α-carboxylic acid] | – | – | – | – | downregulated in a dose dependent manner | comparable to that of Jurkat cell line | does not show induction of apoptosis |
